From patent publication US4723039A, “Phenylacetaldehydes substituted by basic groups, their preparation and drugs containing these compounds” (BASF Aktiengesellschaft, priority 1985, dated 1988)
Counter-ions that a name gives are not always drawn.

What was measured:
[1] = system: lesions of the gastric mucous membrane; test: Cytoprotective action (ethanol-induced gastric lesions); assay type: in vivo, Sprague-Dawley rat (female); conditions: rat, oral; for ED50: dose reducing lesions by 50%, read-out: Cytoprotective effect ED 50%
Method: The cytoprotective action was determined on groups of 8 female Sprague-Dawley rats weighing 160-190 g, the rats having received no food for 48 hours (water ad libitum) and having been pretreated with different doses of the test substances, administered orally. 1 hour later, 10 ml/kg of 100% ethanol were administered orally to the animals. After a further hour, the animals were sacrificed by inhalation of CO2, the stomach was removed and the intensity of the lesions was assessed on the basis of the following scheme:
0=unchanged mucous membrane
1=a few areas of reddening which are narrow, elongated or small
2=reddening over broad, elongated or large interrupted areas
3=pronounced reddening which colors virtually the entire mucous membrane of the glandular stomach.

[2] = system: secretion of gastric acid; test: Inhibition of secretion of gastric acid; assay type: in vivo, Sprague-Dawley rat (female); conditions: rat, oral; for ED (0.75 pH units): 1 h, dose increasing gastric mucosal surface pH by 0.75 pH units, read-out: Acid secretion-inhibiting effect ED 0.75; for Gastric acid secretion-inhibiting dose relative to verapamil: fraction of the dose required of verapamil
Method: Inhibition of the secretion of gastric acid is evident from an increase in the pH of the surface of the gastric mucous membrane. For this measurement, groups of from 5 to 10 female Sprague-Dawley rats weighing 160-190 g, which had remained without food for 48 hours (water ad libitum), were pretreated with different doses of the test substances, administered orally. […] The dose which produces an increase in the pH by 0.75 pH units is determined as the ED 0.75, from the linear regression of log dose and the increase in the pH.

[3] = system: ulcerous lesions on the mucous membrane; test: Antiulcerous action (reserpine/indomethacin-induced gastric ulceration); assay type: in vivo, Sprague-Dawley rat (female); conditions: rat, oral; for ED50: dose reducing ulcerous area by 50%, read-out: Antiulcerous effect ED 50%
Method: To investigate the antiulcerous action, groups of 10 female Sprague-Dawley rats weighing 160-180 g received 1 mg/kg of reserpine, administered intraperitoneally, and thereafter remained without food for 18 hours (water ad libitum). […] Thereafter, they were kept for 6 hours at 8° C. and then sacrificed. The stomach was removed and the area of the ulcerous lesions on the mucous membrane was determined.

[4] = system: isolated spiral strips of aorta; test: Calcium-antagonistic action in isolated spiral strips of aorta; parameters: species or system Sprague-Dawley rat; conditions: in vitro; for EC50: Rattus norvegicus, 50% inhibition of the effect of 0.5 mM Ca++, K-depolarized strips, read-out: Ca-antagonistic action EC 50%; for Ca-antagonistic activity compared with verapamil (in words): rat aorta strips
Method: The Ca-antagonistic action was tested on spiral strips of aorta of male and female Sprague-Dawley rats weighing from 200 to 300 g.
The animals were sacrificed with ether, and the thorax and thoracic aorta were removed. A maximum of 6 spiral strips about 2 mm wide and 2 cm long were used per animal.
The strips of aorta were suspended in a modified tyrode solution at 37° C. and subjected to an initial tension with a load of 1.5 g and, after a relaxation time of about 1 hour, Ca was removed by keeping them for 5 minutes in Ca-free tyrode solution with the addition of 0.2 mM of Na EDTA.
The Ca-free strips of vessel were depolarized with K-rich tyrode solution for 10 minutes. Contraction was induced by a CaCl2 concentration of 0.5 mM. After 15 minutes, Ca was again removed from the strips of vessel by means of a Ca-free tyrode solution containing 0.2 mM of Na EDTA.
Depolarization was then effected again for 10 minutes with K-rich tyrode solution, after which 0.05 ml of the test substance was added. After the test substance had been allowed to act for 15 minutes, CaCl2 was again added in a concentration of 0.5 mM in order to check whether the test substance has a Ca-antagonistic action. Inhibition of the effect of 0.5 mM Ca^++ by the antagonistic substance is stated as a percentage.

[5] = system: Acetylcholine-induced bronchospasm; test: Broncholytic action, acetylcholine-induced bronchospasm; assay type: in vivo; conditions: guinea pig, intravenous; for ED75: Cavia porcellus, 75% reduction in bronchospasms, read-out: ED 75% acetylcholine-induced bronchospasm; for Broncholytic activity compared with verapamil, acetylcholine-induced (in words): text does not separate the inducers
Description: (§1) The animals were artificially ventilated using a Starling pump.

systolic blood pressure = test: Antihypertensive action in spontaneously hypertensive rats; assay type: in vivo, spontaneously hypertensive male Okamoto rat; conditions: for Reduction in blood pressure, p.o., R.A. / ED20: SH rat, p.o.; for Reduction in blood pressure, p.o., R.A.: verapamil = 1.00; for ED20: po, 2 hours after administration, 20% reduction in systolic pressure, read-out: Reduction in blood pressure ED 20% p.o.
Method: To determine the antihypertensive action, the substances were administered orally to spontaneously hypertensive male Okamoto rats (4-8 animals/dose, weight 270-360 g). The systolic blood pressure was measured noninvasively on the rat's tail with the aid of piezoelectric transducers, before and 2 hours after administration. The dose which reduces the systolic pressure by 20%, relative to the values for untreated control animals, was determined as the ED 20%.

blood pressure = test: Hypotensive action in anesthetized rats; assay type: in vivo, Sprague-Dawley rat; conditions: anesthetized rat; for Reduction in blood pressure, i.v., R.A.: verapamil = 1.0; for ED20: iv, 20% decrease in blood pressure, read-out: Reduction in blood pressure ED 20% i.v.
Method: The blood pressure was measured in the carotid artery. The substances were administered intravenously into the jugular vein. The dose which produces a 20% decrease in blood pressure was calculated as the ED 20%, from the linear regression of log dose (mg/kg) and relative decrease in blood pressure (Δ%).

[6] = system: Histamine-induced bronchospasm; test: Broncholytic action, histamine-induced bronchospasm; assay type: in vivo; conditions: guinea pig, intravenous; for ED75: Cavia porcellus, 75% reduction in bronchospasms, read-out: ED 75% histamine-induced bronchospasm; for Broncholytic activity compared with verapamil, histamine-induced (in words): text does not separate the inducers
Description: as §1

SMILES | EC50 [4] [nM] | ED (0.75 pH units) [2] [mg/kg] | Ca-antagonistic activity compared with verapamil (in words) [4] | ED75 [5] [mg/kg] | ED75 [6] [mg/kg] | Broncholytic activity compared with verapamil, acetylcholine-induced (in words) [5] | Broncholytic activity compared with verapamil, histamine-induced (in words) [6] | also measured
CC(C)[C@@](C=O)(CCCN(C)CCc1ccccc1)c1ccccc1 [Example 2, (S)-2-[3-[(Phenylethyl)-methylamino]-propyl]-2-isopropylphenylacetaldehyde hydrochloride] | – | 2 | – | – | – | – | – | ED50 [1]: 9.4 mg/kg; Gastric acid secretion-inhibiting dose relative to verapamil [2]: one-fifth; ED50 [3]: 12.2 mg/kg
COc1ccc(CCN(C)CCCC(C#N)(c2ccc(OC)c(OC)c2)C(C)C)cc1OC (stereo not drawn) [Verapamil, verapamil, reference compound] | 35 | 10.5 | – | 0.56 | 1.3 | – | – | Cytoprotective effect ED 50% (no effect) [1]: (2); Reduction in blood pressure, p.o., R.A. (systolic blood pressure): 1.00; ED20 (systolic blood pressure): 25 mg/kg; Reduction in blood pressure, i.v., R.A. (blood pressure): 1.0; ED20 (blood pressure; i.v.): 0.34 mg/kg; Antiulcerous effect ED 50% (no effect) [3]: (2)
CC(C)[C@](C=O)(CCCN(C)CCc1ccccc1)c1ccccc1 [Example 3, (R)-2-[3-[(Phenylethyl)-methylamino]-propyl]-2-isopropylphenylacetaldehyde hydrochloride] | – | 2.1 | – | – | – | – | – | ED50 [1]: 8.3 mg/kg; Gastric acid secretion-inhibiting dose relative to verapamil [2]: one-fifth; ED50 [3]: 3.8 mg/kg
COc1ccc(CCN(C)CCCC(C=O)(c2ccc(OC)c(OC)c2)C(C)C)cc1OC (stereo not drawn) [Example 8, 2-[3-[(3,4-Dimethoxyphenylethyl)-methylamino]-propyl]-2-isopropyl-3,4-dimethoxyphenylacetaldehyde] | – | – | – | 0.23 | 0.38 | substantially higher activity | substantially higher activity | –
COc1cccc(CCN(C)CCCC(C=O)(c2ccc(OC)c(OC)c2)C(C)C)c1 (stereo not drawn) [Example 6, 2-[3-[(3-Methoxyphenylethyl)-methylamino]-propyl]-2-isopropyl-3,4-dimethoxyphenylacetaldehyde] | – | – | – | 0.39 | 0.59 | substantially higher activity | substantially higher activity | –

More lines, main results first:

EC50 [4] [nM] | SMILES | ED (0.75 pH units) [2] [mg/kg] | Ca-antagonistic activity compared with verapamil (in words) [4] | ED75 [5] [mg/kg] | ED75 [6] [mg/kg] | Broncholytic activity compared with verapamil, acetylcholine-induced (in words) [5] | Broncholytic activity compared with verapamil, histamine-induced (in words) [6] | also measured
12 | COc1cc(CCN(C)CCCC(C=O)(c2cc(OC)cc(OC)c2)C(C)C)cc(OC)c1 (stereo not drawn) [Example 11, 2-[3-[(3,5-Dimethoxyphenylethyl)-methylamino]-propyl]-2-isopropyl-3,5-dimethoxyphenylacetaldehyde hydrogen oxalate] | – | substantially higher activity | – | – | – | – | –
19 | COc1ccc(CCN(C)CCCC(C=O)(c2cc(OC)c(OC)c(OC)c2)C(C)C)cc1OC (stereo not drawn) [Example 10, 2-[3-[3,4-Dimethoxyphenylethyl)-methylamino]-propyl]-2-isopropyl-3,4,5-trimethoxyphenylacetaldehyde hydrogen oxalate] | – | substantially higher activity | – | – | – | – | –
22 | COc1cccc(CCN(C)CCCC(C=O)(c2cccc(OC)c2)C(C)C)c1 (stereo not drawn) [Example 7, 2-[3-[(3-Methoxyphenylethyl)-methylamino]-propyl]-2-isopropyl-3-methoxyphenylacetaldehyde] | – | – | 0.67 | 0.61 | substantially higher activity | substantially higher activity | –
32 | CCOc1cc(CCN(C)CCCC(C=O)(c2cc(OCC)cc(OCC)c2)C(C)C)cc(OCC)c1 (stereo not drawn) [Example 12, 2-[3-[(3,5-Diethoxyphenylethyl)-methylamino]-propyl]1-2-isopropyl-3,5-diethoxyphenylacetaldehyde hydrogen oxalate] | – | – | 0.27 | 0.65 | substantially higher activity | substantially higher activity | Reduction in blood pressure, p.o., R.A. (systolic blood pressure): 6.25; Blood pressure reducing dose, times smaller compared with verapamil (systolic blood pressure; conscious spontaneously hypertensive rats, oral): 6.3 times; ED20 (systolic blood pressure): 4 mg/kg; Reduction in blood pressure, i.v., R.A. (blood pressure): 1.13; Reduction of blood pressure compared with verapamil (in words) (blood pressure; i.v.): reduces the blood pressure to a somewhat greater extent than verapamil; ED20 (blood pressure; i.v.): 0.3 mg/kg
1.2 | COc1cccc(CCN(C)CCCC(C=O)(c2cc(OC)c(OC)c(OC)c2)C(C)C)c1 (stereo not drawn) [Example 9, 2-[3-[(3-Methoxyphenylethyl)-methylamino]-propyl]-2-isopropyl-3,4,5-trimethoxyphenylacetaldehyde hydrogen oxalate] | – | substantially higher activity | – | – | – | – | –
